Five molecules from ChEMBL document CHEMBL3132769, “Fragment growing to retain or alter the selectivity of anchored kinase hinge-binding fragments” (Medchemcomm, 2014) can be followed below.

The target in assay [1] is T1, Interleukin-1 receptor-associated kinase 4 (Homo sapiens) (UniProt Q9NWZ3).
T1 sequence (whole entry): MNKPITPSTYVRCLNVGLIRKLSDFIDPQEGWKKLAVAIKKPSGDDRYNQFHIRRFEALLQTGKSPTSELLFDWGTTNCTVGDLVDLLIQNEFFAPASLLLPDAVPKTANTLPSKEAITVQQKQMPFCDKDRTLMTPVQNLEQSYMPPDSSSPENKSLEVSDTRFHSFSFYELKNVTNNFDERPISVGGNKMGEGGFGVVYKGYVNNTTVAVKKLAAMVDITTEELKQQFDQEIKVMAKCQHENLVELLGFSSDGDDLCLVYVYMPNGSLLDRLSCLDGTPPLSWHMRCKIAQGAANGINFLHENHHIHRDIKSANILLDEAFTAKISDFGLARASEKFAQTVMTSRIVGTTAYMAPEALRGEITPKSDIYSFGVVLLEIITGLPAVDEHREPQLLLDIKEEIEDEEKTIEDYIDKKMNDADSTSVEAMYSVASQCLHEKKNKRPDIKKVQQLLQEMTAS
Briefly: Inhibition of human IRAK4 catalytic domain expressed in baculovirus assessed as substrate phosphorylation using fluorescence-labelled peptides as substrate at 420 uM after 90 mins by microfluidic peptide phosphorylation assay.

Assay [2] addresses MAP kinase-activated protein kinase 2 (Homo sapiens) (UniProt P49137). Description: Inhibition of human full length MAPKAPK2 expressed in baculovirus assessed as substrate phosphorylation using fluorescence-labelled peptides as substrate at 420 uM after 90 mins by microfluidic peptide phosphorylation assay.
Assay [3] concerns T2, Receptor-type tyrosine-protein kinase FLT3 (Homo sapiens), P36888 [D835Y].
T2 sequence (whole entry): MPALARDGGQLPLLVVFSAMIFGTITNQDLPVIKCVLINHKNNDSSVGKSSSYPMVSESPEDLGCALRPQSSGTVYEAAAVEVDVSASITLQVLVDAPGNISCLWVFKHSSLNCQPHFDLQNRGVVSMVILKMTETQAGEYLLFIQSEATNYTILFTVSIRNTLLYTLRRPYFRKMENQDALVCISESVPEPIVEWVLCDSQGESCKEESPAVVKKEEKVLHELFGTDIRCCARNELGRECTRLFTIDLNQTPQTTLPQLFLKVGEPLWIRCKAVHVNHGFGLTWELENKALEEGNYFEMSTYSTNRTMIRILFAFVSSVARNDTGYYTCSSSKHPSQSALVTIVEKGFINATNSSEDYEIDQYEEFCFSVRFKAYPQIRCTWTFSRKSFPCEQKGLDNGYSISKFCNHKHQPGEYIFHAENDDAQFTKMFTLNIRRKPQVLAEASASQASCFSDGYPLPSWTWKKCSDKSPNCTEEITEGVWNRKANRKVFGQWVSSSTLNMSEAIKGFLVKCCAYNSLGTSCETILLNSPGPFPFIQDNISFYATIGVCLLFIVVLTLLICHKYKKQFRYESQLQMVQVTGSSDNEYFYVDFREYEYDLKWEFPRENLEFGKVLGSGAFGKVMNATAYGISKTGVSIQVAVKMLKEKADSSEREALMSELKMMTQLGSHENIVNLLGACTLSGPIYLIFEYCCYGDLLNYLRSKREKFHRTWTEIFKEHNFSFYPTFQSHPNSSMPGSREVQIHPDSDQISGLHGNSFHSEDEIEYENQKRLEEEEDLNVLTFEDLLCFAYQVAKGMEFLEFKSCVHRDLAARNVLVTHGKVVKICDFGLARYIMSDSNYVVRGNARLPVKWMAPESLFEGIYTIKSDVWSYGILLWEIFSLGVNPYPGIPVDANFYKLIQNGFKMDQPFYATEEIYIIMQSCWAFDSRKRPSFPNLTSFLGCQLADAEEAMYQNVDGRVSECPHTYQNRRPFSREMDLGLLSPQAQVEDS
Briefly: Inhibition of human FLT3 D835Y mutant catalytic domain expressed in baculovirus assessed as substrate phosphorylation using fluorescence-labelled peptides as substrate at 0.06 uM after 90 mins by microfluidic peptide phosphorylation assay.

Assay [4] addresses T3, Aurora kinase A (Homo sapiens) (UniProt O14965).
T3 sequence (whole entry): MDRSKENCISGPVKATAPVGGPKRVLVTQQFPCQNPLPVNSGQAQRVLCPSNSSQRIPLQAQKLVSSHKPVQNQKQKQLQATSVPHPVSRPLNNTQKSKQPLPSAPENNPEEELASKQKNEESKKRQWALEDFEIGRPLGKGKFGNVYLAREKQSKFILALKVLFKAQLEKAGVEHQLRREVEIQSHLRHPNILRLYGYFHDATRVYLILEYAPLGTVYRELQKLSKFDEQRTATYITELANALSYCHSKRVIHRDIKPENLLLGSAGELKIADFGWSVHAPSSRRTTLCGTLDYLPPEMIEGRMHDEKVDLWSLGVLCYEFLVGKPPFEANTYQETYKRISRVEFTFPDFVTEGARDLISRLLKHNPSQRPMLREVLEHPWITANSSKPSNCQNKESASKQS
Description: Inhibition of human full length AurA expressed in baculovirus assessed as substrate phosphorylation using fluorescence-labelled peptides as substrate at 0.2 uM after 90 mins by microfluidic peptide phosphorylation assay.

Assay [5] concerns the target Casein kinase I isoform alpha (Homo sapiens) (UniProt P48729). Briefly: Inhibition of human full length CSNK1A1 expressed in baculovirus assessed as substrate phosphorylation using fluorescence-labelled peptides as substrate at 2 uM after 90 mins by microfluidic peptide phosphorylation assay.
In assay [6] the test system is Fibroblast growth factor receptor 2 (Homo sapiens), P21802 [N549H]. Description: Inhibition of human FGFR2 N549H mutant catalytic domain expressed in baculovirus assessed as substrate phosphorylation using fluorescence-labelled peptides as substrate at 95 uM after 90 mins by microfluidic peptide phosphorylation assay.
Assay [7] addresses Receptor-type tyrosine-protein kinase FLT3 (Homo sapiens) (UniProt P36888). Briefly: Inhibition of human FLT3 catalytic domain expressed in baculovirus assessed as substrate phosphorylation using fluorescence-labelled peptides as substrate at 95 uM after 90 mins by microfluidic peptide phosphorylation assay.

The structures appear in SMILES notation.

Chain of MAP kinase-activated protein kinase 2 (Homo sapiens) (P49137 whole entry, looked up): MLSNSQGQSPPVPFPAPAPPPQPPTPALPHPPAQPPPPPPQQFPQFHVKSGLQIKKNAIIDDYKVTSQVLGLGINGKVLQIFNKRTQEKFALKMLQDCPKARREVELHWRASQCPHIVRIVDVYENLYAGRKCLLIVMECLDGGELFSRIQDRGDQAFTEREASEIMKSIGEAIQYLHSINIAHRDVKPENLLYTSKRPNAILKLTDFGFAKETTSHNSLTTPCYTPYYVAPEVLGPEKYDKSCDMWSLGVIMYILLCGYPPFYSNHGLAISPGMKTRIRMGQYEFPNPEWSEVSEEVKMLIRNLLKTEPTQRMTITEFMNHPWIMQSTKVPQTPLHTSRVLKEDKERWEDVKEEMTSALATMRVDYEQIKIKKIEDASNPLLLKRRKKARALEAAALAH
Chain of Casein kinase I isoform alpha (Homo sapiens) (P48729 2-337 limits assumed): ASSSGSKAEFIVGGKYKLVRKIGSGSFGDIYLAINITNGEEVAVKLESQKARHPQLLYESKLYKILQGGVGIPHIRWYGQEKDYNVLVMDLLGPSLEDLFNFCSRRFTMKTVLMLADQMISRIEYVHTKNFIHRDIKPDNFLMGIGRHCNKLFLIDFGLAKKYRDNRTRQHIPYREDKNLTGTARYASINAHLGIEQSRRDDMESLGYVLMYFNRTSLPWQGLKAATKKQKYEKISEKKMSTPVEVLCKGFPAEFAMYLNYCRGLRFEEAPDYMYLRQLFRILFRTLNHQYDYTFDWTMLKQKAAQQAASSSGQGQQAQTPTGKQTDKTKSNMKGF
Chain of Fibroblast growth factor receptor 2 (Homo sapiens), P21802 [N549H] (P21802 whole entry N549H, the tested form may be a part): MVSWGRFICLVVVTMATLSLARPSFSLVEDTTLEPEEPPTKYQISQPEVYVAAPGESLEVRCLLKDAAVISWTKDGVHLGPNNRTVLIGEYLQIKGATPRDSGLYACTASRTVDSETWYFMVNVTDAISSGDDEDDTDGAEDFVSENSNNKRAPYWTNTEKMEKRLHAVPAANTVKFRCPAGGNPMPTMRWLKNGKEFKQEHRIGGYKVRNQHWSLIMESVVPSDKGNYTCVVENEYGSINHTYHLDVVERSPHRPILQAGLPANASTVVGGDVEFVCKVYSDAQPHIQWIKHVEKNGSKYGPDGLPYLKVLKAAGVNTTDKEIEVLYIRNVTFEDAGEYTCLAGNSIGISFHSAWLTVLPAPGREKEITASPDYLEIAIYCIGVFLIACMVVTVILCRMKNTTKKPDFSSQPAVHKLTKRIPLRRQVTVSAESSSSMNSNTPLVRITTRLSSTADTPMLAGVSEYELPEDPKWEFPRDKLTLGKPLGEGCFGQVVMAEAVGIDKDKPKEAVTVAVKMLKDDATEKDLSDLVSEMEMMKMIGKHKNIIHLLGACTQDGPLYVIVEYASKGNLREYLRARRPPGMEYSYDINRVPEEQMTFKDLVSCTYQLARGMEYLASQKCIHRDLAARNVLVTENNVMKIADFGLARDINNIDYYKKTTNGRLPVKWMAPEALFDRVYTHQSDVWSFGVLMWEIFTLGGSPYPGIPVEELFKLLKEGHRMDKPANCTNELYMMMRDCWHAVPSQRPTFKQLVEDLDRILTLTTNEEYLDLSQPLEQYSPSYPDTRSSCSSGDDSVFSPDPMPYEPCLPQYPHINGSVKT

In general, inhibition refers to the change of the read-out against control, counted positive when it falls. `c1nc(N2CCOCC2)c2nc[nH]c2n1`: the values for the inhibition in assay [1] and in assay [2] were 74.5% and 74%, respectively.

Turning to `NC1(Cc2ccc(Cl)cc2)CCN(c2ncnc3[nH]ccc23)CC1`, the inhibition in assay [3] was determined as 0%.

Turning to `Clc1ccc(C2(c3ccc(-c4ncnc5[nH]cnc45)cc3)CCNCC2)cc1`, the inhibition in assay [4] is 49%.

For `NC1CCN(c2ncnc3[nH]ccc23)CC1`, the inhibition in assay [5] came to 9.5%.

Regarding `NCCc1ccc(-c2ncnc3[nH]cnc23)cc1`, the values for the inhibition in assay [6] and in assay [7] were 40% and 49.5%, respectively.
